Results as given in article PMC7696940, “Effects of Rationally Designed Physico-Chemical Variants of the Peptide PuroA on Biocidal Activity towards Bacterial and Mammalian Cells” (International Journal of Molecular Sciences, 2020).
Values after ≈ are worked out from the molar mass of the structure shown. Where no end group is shown, it is not given here.

Assays:
[1] = system: C. albicans FRR 5580; type: cell-based, Candida albicans; settings: PDB, overnight; mode of three independent experiments
Method: The assay was carried out as per Alfred et al.. Candida albicans (FRR 5580) was grown in potato dextrose broth (PDB; Difco-BD, Bergen County, NJ, USA) overnight at 30 °C with shaking (200 rpm) until exponential phase, then adjusted to 0.5 McFarland turbidity standard (approximately 1 × 10^6 cells/mL) and diluted 1:200 with PDB to 0.5 − 2 × 10^3 cells/mL. Peptides in 25 μL volumes were mixed with 75 μL of the yeast suspensions. The controls were included as above. The plates were incubated overnight and absorbance was recorded. All the tests were conducted in triplicate.

[2] = system: E. coli ATCC25922; type: cell-based, Escherichia coli; settings: MHB; for MIC E. coli, No NaCl: 0 mM NaCl; for MIC E. coli, No NaCl / MIC E. coli, With 50mM NaCl / MIC E. coli, With 100mM NaCl / MIC E. coli, With 150mM NaCl: triplicate, mode; for MIC E. coli ATCC25922: 37 °C overnight, A595, mode of three independent experiments
Method: The activity of peptides was determined against the Gram-positive Staphylococcus aureus (ATCC 25923), and the Gram-negative Escherichia coli (ATCC 25922) and Pseudomonas aeruginosa (ATCC 9027) bacteria. Selected peptides were also tested against two clinical isolates of methicillin-resistant Staphylococcus aureus (MRSA), M173525 and M180920, kindly provided by Dr P. B. Ward (Microbiology Department, Austin and Repatriation Medical Centre, Heidelberg West, Victoria, Australia). The Minimum inhibitory concentration (MIC) of peptides was determined by the microtitre broth dilution method, as described in Phillips et al.. Briefly, bacteria were grown in Mueller-Hinton Broth (MHB) at 37 °C overnight with shaking (200 rpm). The cultures were adjusted to 0.5 McFarland turbidity standard (approximately 1 × 10^8 colony forming units (CFU)/mL), then diluted 1:100 in MHB (1 × 10^6 CFU/mL). A total of 75 μL of these suspensions were mixed with 25 μL of peptide solutions (final concentrations 250 to 0.5 μg/mL) and the microtitre plates incubated overnight at 37 °C. Positive growth controls (inoculum and MHB, with no peptide) and sterility controls (0.01% glacial acetic) were also included. Post-incubations, the absorbance of cultures at 595 nm was measured using a microplate reader (POLARstar Omega, Germany). […] To evaluate salt sensitivity of peptides up to physiological levels (150 mM NaCl), overnight cultures of S. aureus and E. coli adjusted to 0.5 McFarland turbidity standard were diluted 1:100 in MHB containing 0, 50, 100 or 150 mM NaCl, and the MICs of peptides determined as above. All tests were conducted in triplicate. The results are shown as the mode of values obtained.

[3] = system: NIH-3T3 cells; experiment: Cytotoxicity, MTT assay; type: cell-based, mouse; settings: 24 h; for IC50 NIH-3T3: peptide up to 250 µg/mL, concentration causing 50% cell growth inhibition, mean of triplicate assays
Method: Cytotoxicity to human cervical carcinoma HeLa cells and mouse fibroblastic NIH-3T3 cells was determined using the MTT assay as per Scudiero et al. with minor modifications. The cells were maintained in Dulbecco’s Modified Eagle Medium (DMEM) with 10% foetal bovine serum (FBS) and 1% penicillin G in a humidified incubator (Heraeus Hera Cell incubator) at 37 °C with 5% CO2. They were seeded in 96-well microtiter plates at 1 × 10^4 cells/well and allowed to adhere for 24 h in the incubator. The medium was removed, and adherent cells were washed with PBS. Fresh media containing serially diluted peptides in PBS (final concentrations 4 to 250 µg/mL) were added and the cells incubated for 24 h. Cells without peptides were used as negative controls. Following incubations, the medium was removed, and adherent cells were washed with PBS. 150 µL of MTT (diluted to 0.33 mg/mL in DMEM) and the plates incubated for 3 h. The precipitated formazan was dissolved in 100 µL of DMSO and its absorbance measured at 570 nm. Cell viability was determined as: (OD570 nm peptide treated cells/(OD570 nm untreated cells) × 100. Positive cytotoxicity was defined as peptide concentration that causes 50% growth inhibition in a cell line (IC50). All tests were carried out in triplicate.

Which “MIC C. albicans FRR 5580” value [1] does the source give for RKRWWRWWKWWKR-NH2 [Peptide P1] here?
Its value is 64 µg/mL.

And the “MIC E. coli, No NaCl” value [2]?
Its value is 16 µg/mL.

And the “MIC E. coli, With 50mM NaCl” value [2]?
Its value is 16 µg/mL.

What about the “MIC E. coli, With 100mM NaCl” value [2] of the same compound?
The value was 16 µg/mL.

What about the “MIC E. coli, With 150mM NaCl” value [2] of the same compound?
The value was 16 µg/mL.

What about the “IC50 NIH-3T3” value [3] of the same compound?
The value was 250 µg/mL.

With `CC(C)[C@H](NC(=O)[C@@H]1CCCN1C(=O)[C@@H](N)Cc1ccccc1)C(=O)N[C@H](C(=O)N[C@@H](Cc1c[nH]c2ccccc12)C(=O)N[C@@H](CCCNC(=N)N)C(=O)N[C@@H](Cc1c[nH]c2ccccc12)C(=O)N[C@@H](Cc1c[nH]c2ccccc12)C(=O)N[C@@H](CCCCN)C(=O)N[C@@H](Cc1c[nH]c2ccccc12)C(=O)N[C@@H](Cc1c[nH]c2ccccc12)C(=O)N[C@@H](CCCCN)C(=O)NCC(N)=O)[C@@H](C)O` [PuroA] as the compound, how does the “MIC C. albicans FRR 5580” value [1] read?
Its value is 125 µg/mL (≈ 67.1 µM).

What about the “MIC E. coli, No NaCl” value [2] of the same compound?
Its value is 16 µg/mL (≈ 8.59 µM).

And the “MIC E. coli, With 50mM NaCl” value [2]?
Its value is 16 µg/mL (≈ 8.59 µM).

And the “MIC E. coli, With 100mM NaCl” value [2]?
Its value is 32 µg/mL (≈ 17.2 µM).

And the “MIC E. coli, With 150mM NaCl” value [2]?
Its value is 64 µg/mL (≈ 34.4 µM).

What about the “MIC E. coli ATCC25922” value [2] of the same compound?
Its value is 16 µg/mL (≈ 8.59 µM).

And the “IC50 NIH-3T3” value [3]?
Its value is 250 µg/mL (≈ 134 µM).

Which results are given for WRWWKWW-NH2 [Peptide W7]?
MIC C. albicans FRR 5580 [1]: 64 µg/mL; MIC E. coli, No NaCl [2]: 4 µg/mL; MIC E. coli, With 50mM NaCl [2]: 4 µg/mL; MIC E. coli, With 100mM NaCl [2]: 4 µg/mL; MIC E. coli, With 150mM NaCl [2]: 4 µg/mL; MIC E. coli ATCC25922 [2]: 4 µg/mL; IC50 NIH-3T3 [3]: 250 µg/mL

WWRWWKWW-NH2 [WW] was tested. Which “MIC C. albicans FRR 5580” value [1] did it give?
Its value is 64 µg/mL.

What about the “MIC E. coli, No NaCl” value [2] of the same compound?
Its value is 8 µg/mL.

And the “MIC E. coli, With 50mM NaCl” value [2]?
The value was 8 µg/mL.

What about the “MIC E. coli, With 100mM NaCl” value [2] of the same compound?
The value was 8 µg/mL.

And the “MIC E. coli, With 150mM NaCl” value [2]?
The value was 8 µg/mL.

What about the “MIC E. coli ATCC25922” value [2] of the same compound?
Its value is 8 µg/mL.

What about the “IC50 NIH-3T3” value [3] of the same compound?
Its value is over 250 µg/mL.

What about the “Cytotoxicity to NIH-3T3 mouse fibroblasts (in words)” value ([3]; up to 250 µg/mL) of the same compound?
Its value is “no cytotoxicity”.
